Experimental data from patent publication US9566312B2, “Cyclic peptides and use as medicines” (priority 2012, dated 2017).
Starred links: 1 amine or outer side, 2 acyl side, 3 side chain; linkers in the order of their positions; H or OH if unused. Non-standard residues stand in square brackets, D forms with d. Residues, ends and D or L forms follow the SMILES beside them. X61 = C[C@@H]1CN(CCOC[C@@H](C)[C@@H](C(=O)[*:2])N(C)[*:1])[C@H](C)CO1; X75 = C[C@H](CCC(C)(C)OC(=O)N1CCN(C)CC1)[C@@H](C(=O)[*:2])N(C)[*:1]; X74 = C[C@H](CCN1CCN2C(=O)OC[C@@H]2C1)[C@@H](C(=O)[*:2])N(C)[*:1]; X48 = C[C@@H](CN1CCN(S(C)(=O)=O)CC1)[C@@H](C(=O)[*:2])N(C)[*:1]; X45 = C[C@H](CCC(=O)N1CC2CCC(C1)O2)[C@@H](C(=O)[*:2])N(C)[*:1]; X68 = C[C@H](CCN1CCC(C#N)CC1)[C@@H](C(=O)[*:2])N(C)[*:1]; NMe(dihydroBmt) = CCCC[C@@H](C)[C@@H](O)[C@H](NC)C(=O)O; X71 = COC1CN(CC[C@@H](C)[C@@H](C(=O)[*:2])N(C)[*:1])C1; X43 = COCCN(C)C[C@@H](C)[C@@H](C(=O)[*:2])N(C)[*:1]; X9 = C[C@@H](CN1CCOCC1)[C@@H](C(=O)[*:2])N(C)[*:1]; MeBmt = C/C=C/C[C@@H](C)[C@@H](O)[C@H](NC)C(=O)O; NMeL = CN[C@@H](CC(C)C)C(=O)O; NMeV = CN[C@H](C(=O)O)C(C)C; dNMeA = CN[C@H](C)C(=O)O; Abu = CC[C@H](N)C(=O)O

Tests used:
[1] = system: genotype 1b subgenomic HCV replicon in Huh7.5 cells; assay type: cell-based, hepatitis C virus; conditions: genotype 1b replicon, 72 h incubation; read-out: RPLN-1b IC50
How it was run: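 Replicon inhibition read as renilla luciferase signal versus DMSO controls after 72 h incubation, in Huh7.5 cells harbouring a genotype 1b subgenomic replicon; medium phenol red-free DMEM lacking G418. CC50 determined in parallel via Cell Titer-Glo.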

cyclophilin B (CypB) = cyclophilin B (CypB) (Homo sapiens (Human), UniProt P23284); assay: Inhibitor binding to cyclophilin proteins by SPR, CypB; set-up: unit not given here; conditions: 1:1 binding model
cyclophilin B (CypB), sequence (P23284 34-216): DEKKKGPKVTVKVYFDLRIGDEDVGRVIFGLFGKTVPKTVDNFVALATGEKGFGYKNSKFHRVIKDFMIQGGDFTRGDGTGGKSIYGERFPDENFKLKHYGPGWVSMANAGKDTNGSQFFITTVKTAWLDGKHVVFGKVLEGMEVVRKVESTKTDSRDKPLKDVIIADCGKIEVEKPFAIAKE
How it was run: (§1)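 SPR, single-cycle kinetics. Avi-tagged, mono-biotinylated protein on Biotin CAPture chip; running buffer 10 mM HEPES pH 7.4, 150 mM NaCl, 0.05% P20, 3% DMSO. 1 min contacts at 50 μL/min, 10 min dissociation. kon/koff/KD from 1:1 fit.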

CYP3A4 = CYP3A4 (Homo sapiens (Human), UniProt P08684); assay: Time-dependent inhibition of CYP3A4;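 also: Two-step in vitro assay, kobs derived from residual CYP3A4 activity versus preincubation time per concentration, then kinact and KI by nonlinear fit of kobs against concentration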
CYP3A4, sequence (P08684 whole entry): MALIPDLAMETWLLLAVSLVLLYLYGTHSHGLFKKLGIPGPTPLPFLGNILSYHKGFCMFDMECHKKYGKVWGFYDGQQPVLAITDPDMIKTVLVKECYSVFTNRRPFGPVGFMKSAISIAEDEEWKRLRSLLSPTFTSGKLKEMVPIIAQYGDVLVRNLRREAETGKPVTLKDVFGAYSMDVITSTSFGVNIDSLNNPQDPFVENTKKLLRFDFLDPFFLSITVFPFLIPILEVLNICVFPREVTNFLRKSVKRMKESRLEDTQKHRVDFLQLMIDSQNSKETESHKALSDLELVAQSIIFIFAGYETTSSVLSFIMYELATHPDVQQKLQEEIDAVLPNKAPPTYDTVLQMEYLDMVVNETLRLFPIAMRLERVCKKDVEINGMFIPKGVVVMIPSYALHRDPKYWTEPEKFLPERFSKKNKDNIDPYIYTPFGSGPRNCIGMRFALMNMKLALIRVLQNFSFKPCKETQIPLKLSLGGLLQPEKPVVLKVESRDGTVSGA

cyclophilin A (CypA) = cyclophilin A (CypA) (Homo sapiens (Human), UniProt P62937); assay: Inhibitor binding to cyclophilin proteins by SPR, CypA; set-up: unit not given here; conditions: 1:1 binding model;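 also: Single-cycle kinetics on a Biacore T200, compound injected at several concentrations for 1 min each at 50 µL/min, then 10 min dissociation, in HEPES pH 7.4 buffer with 3% DMSO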
cyclophilin A (CypA), sequence (P62937 whole entry): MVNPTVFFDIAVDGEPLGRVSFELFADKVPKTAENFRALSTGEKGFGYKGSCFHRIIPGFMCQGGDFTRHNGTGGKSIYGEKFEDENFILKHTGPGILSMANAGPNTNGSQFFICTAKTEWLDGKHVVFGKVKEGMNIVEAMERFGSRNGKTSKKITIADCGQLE

CypF = CypF (Homo sapiens (Human), UniProt P30405); assay: Inhibitor binding to cyclophilin proteins by SPR, CypF; conditions: 1:1 binding model
CypF, sequence (P30405 30-207): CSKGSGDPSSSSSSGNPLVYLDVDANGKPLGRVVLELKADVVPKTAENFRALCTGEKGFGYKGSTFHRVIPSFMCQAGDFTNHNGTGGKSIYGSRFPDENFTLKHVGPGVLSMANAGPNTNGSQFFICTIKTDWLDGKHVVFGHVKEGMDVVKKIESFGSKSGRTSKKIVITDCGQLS
How it was run: as §1

[2] = biological target: organic anion transporting polypeptide 1B1 (OATP1B1) (Homo sapiens (Human), UniProt Q9Y6L6); assay: OATP assay in CHO-OATP1B1 cells;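 also: inhibition of probe substrate uptake into the cells, ten minutes exposure, accumulated substrate read by fluorescence once cells were lysed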
organic anion transporting polypeptide 1B1 (OATP1B1), sequence (Q9Y6L6 whole entry): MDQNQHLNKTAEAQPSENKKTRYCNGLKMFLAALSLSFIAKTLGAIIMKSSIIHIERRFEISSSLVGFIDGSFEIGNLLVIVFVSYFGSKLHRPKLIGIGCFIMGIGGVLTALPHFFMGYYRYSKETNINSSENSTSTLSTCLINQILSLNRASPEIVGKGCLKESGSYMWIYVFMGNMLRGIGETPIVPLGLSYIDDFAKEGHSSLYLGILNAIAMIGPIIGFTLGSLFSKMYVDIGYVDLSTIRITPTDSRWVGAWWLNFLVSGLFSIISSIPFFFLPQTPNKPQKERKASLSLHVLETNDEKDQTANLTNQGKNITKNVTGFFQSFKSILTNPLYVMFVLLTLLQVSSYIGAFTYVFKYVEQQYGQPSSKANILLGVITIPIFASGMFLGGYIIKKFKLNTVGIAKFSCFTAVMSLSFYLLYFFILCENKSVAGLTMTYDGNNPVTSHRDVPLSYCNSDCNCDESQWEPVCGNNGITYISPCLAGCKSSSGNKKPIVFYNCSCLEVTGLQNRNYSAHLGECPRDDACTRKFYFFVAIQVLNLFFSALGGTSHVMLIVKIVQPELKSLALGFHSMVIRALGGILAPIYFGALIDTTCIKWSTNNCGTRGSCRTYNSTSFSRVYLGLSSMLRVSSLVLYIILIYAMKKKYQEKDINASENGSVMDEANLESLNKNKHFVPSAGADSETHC

[3] = system: peripheral blood mononuclear cells (PBMC); assay: Anti-proliferative or immunosuppressive activity, BrdU incorporation in PHA-stimulated PBMC; assay type: cell-based; conditions: PHA 3 μg/ml, 60 hour compound treatment; read-out: EMV PBMC IC50
How it was run: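 BrdU ELISA read-out of DNA synthesis in freshly isolated PBMCs (two donors, 30,000 cells/well, X-VIVO 15). T-cell proliferation triggered with phytohemagglutinin at 3 μg/ml.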

SMILES | IC50 [1] [nM] | CypB Kd (cyclophilin B (CypB)) | Ki (CYP3A4) [nM] | CypA Kd (cyclophilin A (CypA)) | CypF Kd (CypF) [nM] | IC50 [2] [nM] | IC50 [3] [nM]
CCCC[C@@H](C)[C@@H](O)[C@H]1C(=O)N[C@@H](CC)C(=O)N(C)[C@H](C)C(=O)N(C)[C@@H]([C@@H](C)CN2CCOCC2)C(=O)N[C@@H](C(C)C)C(=O)N(C)[C@@H](CC(C)C)C(=O)N[C@@H](C)C(=O)N[C@H](C)C(=O)N(C)[C@@H](CC(C)C)C(=O)N(C)[C@@H](CC(C)C)C(=O)N(C)[C@@H](C(C)C)C(=O)N1C [Compound 2.17.7, 1-dihydro-3-[D-Ala]-4[(2S,3S)-2-Amino-3-methyl-4-morpholin-4-yl-butanoyl]-cyclosporin] (cyclo(A[dA][NMeL][NMeL][NMeV][NMe(dihydroBmt)][Abu][dNMeA][X9]V[NMeL])) | 15 | 0.7 | > 50000 | 1.5 | 0.7 |  | 
C/C=C/C[C@@H](C)[C@@H](O)[C@H]1C(=O)N[C@@H](CC)C(=O)N(C)[C@H](C)C(=O)N(C)[C@@H]([C@H](C)CCCN2CCC(OC)CC2)C(=O)N[C@@H](C(C)C)C(=O)N(C)[C@@H](CC(C)C)C(=O)N[C@@H](C)C(=O)N[C@H](C)C(=O)N(C)[C@@H](CC(C)C)C(=O)N(C)[C@@H](CC(C)C)C(=O)N(C)[C@@H](C(C)C)C(=O)N1C (stereo in doubt) [Compound 2.19.5, 3-[D-Ala]-4-[(2S,3R)-6-(4-methoxypiperidin-1-yl)-3-methyl-2-(methylamino)hexanoyl]-cyclosporin] | 80 | 0.5 |  | 0.7 | 0.4 | 4300 | 8900
C/C=C/C[C@@H](C)[C@@H](O)[C@H]1C(=O)N[C@@H](CC)C(=O)N(C)[C@H](C)C(=O)N(C)[C@@H]([C@H](C)COCCN2C[C@@H](C)OC[C@H]2C)C(=O)N[C@@H](C(C)C)C(=O)N(C)[C@@H](CC(C)C)C(=O)N[C@@H](C)C(=O)N[C@H](C)C(=O)N(C)[C@@H](CC(C)C)C(=O)N(C)[C@@H](CC(C)C)C(=O)N(C)[C@@H](C(C)C)C(=O)N1C [Compound 2.8.4, 3-[D-Ala]-4-[(2S,3S)-4-(2-((2R,5R)-2,5-dimethylmorpholino)ethoxy)-3-methyl-2-(methylamino)butanoyl]-cyclosporin] (cyclo(A[dA][NMeL][NMeL][NMeV][MeBmt][Abu][dNMeA][X61]V[NMeL])) | 45 | 0.7 |  | 0.9 | 0.7 | 3600 | 10700
C/C=C/C[C@@H](C)[C@@H](O)[C@H]1C(=O)N[C@@H](CC)C(=O)N(C)[C@H](C)C(=O)N(C)[C@@H]([C@H](C)CCN2CCC(C#N)CC2)C(=O)N[C@@H](C(C)C)C(=O)N(C)[C@@H](CC(C)C)C(=O)N[C@@H](C)C(=O)N[C@H](C)C(=O)N(C)[C@@H](CC(C)C)C(=O)N(C)[C@@H](CC(C)C)C(=O)N(C)[C@@H](C(C)C)C(=O)N1C [Compound 2.18.2, 3-[D-Ala]-4-[(2S,3R)-5-(4-cyanopiperidin-1-yl)-3-methyl-2-(methylamino)pentanoyl]-cyclosporin] (cyclo(A[dA][NMeL][NMeL][NMeV][MeBmt][Abu][dNMeA][X68]V[NMeL])) | 58 | 0.7 |  | 1.1 | 0.6 | 2400 | 7300
C/C=C/C[C@@H](C)[C@@H](O)[C@H]1C(=O)N[C@@H](CC)C(=O)N(C)[C@H](C)C(=O)N(C)[C@@H]([C@H](C)CCN2CC(OC)C2)C(=O)N[C@@H](C(C)C)C(=O)N(C)[C@@H](CC(C)C)C(=O)N[C@@H](C)C(=O)N[C@H](C)C(=O)N(C)[C@@H](CC(C)C)C(=O)N(C)[C@@H](CC(C)C)C(=O)N(C)[C@@H](C(C)C)C(=O)N1C [Compound 2.18.5, 3-[D-Ala]-4-[(2S,3R)-5-(3-methoxyazetidin-1-yl)-3-methyl-2-(methylamino)pentanoyl]-cyclosporin] (cyclo(A[dA][NMeL][NMeL][NMeV][MeBmt][Abu][dNMeA][X71]V[NMeL])) | 78 | 0.6 |  | 0.9 | 0.5 | 1400 | 8100
C/C=C/C[C@@H](C)[C@@H](O)[C@H]1C(=O)N[C@@H](CC)C(=O)N(C)[C@H](C)C(=O)N(C)[C@@H]([C@H](C)CCN2CCN3C(=O)OC[C@@H]3C2)C(=O)N[C@@H](C(C)C)C(=O)N(C)[C@@H](CC(C)C)C(=O)N[C@@H](C)C(=O)N[C@H](C)C(=O)N(C)[C@@H](CC(C)C)C(=O)N(C)[C@@H](CC(C)C)C(=O)N(C)[C@@H](C(C)C)C(=O)N1C [Compound 2.18.9, 3-[D-Ala]-4-[(2S,3R)-3-methyl-2-(methylamino)-5-((S)-3-oxotetrahydro-1H-oxazolo[3,4-a]pyrazin-7(3H)-yl)pentanoyl]-cyclosporin] (cyclo(A[dA][NMeL][NMeL][NMeV][MeBmt][Abu][dNMeA][X74]V[NMeL])) | 170 | 2.7 |  | 1.8 | 1 | 2800 | 9200
C/C=C/C[C@@H](C)[C@@H](O)[C@H]1C(=O)N[C@@H](CC)C(=O)N(C)[C@H](C)C(=O)N(C)[C@@H]([C@H](C)CCC(C)(C)OC(=O)N2CCN(C)CC2)C(=O)N[C@@H](C(C)C)C(=O)N(C)[C@@H](CC(C)C)C(=O)N[C@@H](C)C(=O)N[C@H](C)C(=O)N(C)[C@@H](CC(C)C)C(=O)N(C)[C@@H](CC(C)C)C(=O)N(C)[C@@H](C(C)C)C(=O)N1C [Compound 2.12.2, 3-[D-Ala]-4-[(2S,3R)-3,6-dimethyl-2-(methylamino)-6-((4-methylpiperazine-1-carbonyl)oxy)heptanoyl]-cyclosporin] (cyclo(A[dA][NMeL][NMeL][NMeV][MeBmt][Abu][dNMeA][X75]V[NMeL])) | 180 | 6.8 |  | 22 | 10 | 4700 | 11600
C/C=C/C[C@@H](C)[C@@H](O)[C@H]1C(=O)N[C@@H](CC)C(=O)N(C)[C@H](C)C(=O)N(C)[C@@H]([C@H](C)CN(C)CCOC)C(=O)N[C@@H](C(C)C)C(=O)N(C)[C@@H](CC(C)C)C(=O)N[C@@H](C)C(=O)N[C@H](C)C(=O)N(C)[C@@H](CC(C)C)C(=O)N(C)[C@@H](CC(C)C)C(=O)N(C)[C@@H](C(C)C)C(=O)N1C [Compound 2.5.22, 3-[D-Ala]-4-[(2S,3R)-4-((2-methoxyethyl)(methyl)amino)-3-methyl-2-(methylamino)butanoyl]-cyclosporin] (cyclo(A[dA][NMeL][NMeL][NMeV][MeBmt][Abu][dNMeA][X43]V[NMeL])) | 41 | 0.9 |  | 1.7 | 0.9 | 1900 | 8900
C/C=C/C[C@@H](C)[C@@H](O)[C@H]1C(=O)N[C@@H](CC)C(=O)N(C)[C@H](C)C(=O)N(C)[C@@H]([C@@H](C)CN2CCN(S(C)(=O)=O)CC2)C(=O)N[C@@H](C(C)C)C(=O)N(C)[C@@H](CC(C)C)C(=O)N[C@@H](C)C(=O)N[C@H](C)C(=O)N(C)[C@@H](CC(C)C)C(=O)N(C)[C@@H](CC(C)C)C(=O)N(C)[C@@H](C(C)C)C(=O)N1C [Compound 2.17.9, 3-[D-Ala]-4-[(2S,3S)-3-methyl-2-(methylamino)-4-(4-(methylsulfonyl)piperazin-1-yl)butanoyl]-cyclosporin] (cyclo(A[dA][NMeL][NMeL][NMeV][MeBmt][Abu][dNMeA][X48]V[NMeL])) | 23 | 0.6 |  | 0.9 | 0.5 | 400 | 31900
C/C=C/C[C@@H](C)[C@@H](O)[C@H]1C(=O)N[C@@H](CC)C(=O)N(C)[C@H](C)C(=O)N(C)[C@@H]([C@H](C)CCC(=O)N2CC3CCC(C2)O3)C(=O)N[C@@H](C(C)C)C(=O)N(C)[C@@H](CC(C)C)C(=O)N[C@@H](C)C(=O)N[C@H](C)C(=O)N(C)[C@@H](CC(C)C)C(=O)N(C)[C@@H](CC(C)C)C(=O)N(C)[C@@H](C(C)C)C(=O)N1C [Compound 2.14.2, 3-[D-Ala]-4-[(2S,3R)-6-(8-oxa-3-azabicyclo[3.2.1]octan-3-yl)-3-methyl-2-(methylamino)-6-oxohexanoyl]-cyclosporin] (cyclo(A[dA][NMeL][NMeL][NMeV][MeBmt][Abu][dNMeA][X45]V[NMeL])) | 75 | 0.9 |  | 2.4 | 1 | 1900 | 6700
